From patent publication US20230181555A1, “STABLE AND PRESERVED PHARMACEUTICAL COMPOSITIONS OF BILASTINE” (priority 2019, published 2023)

Tests used:
[1] = Solubility of bilastine in water; assay type: physicochemical; conditions: pH-dependent
[2] = Solubility of bilastine and mometasone furoate in formulations with HPBCD; assay type: physicochemical; conditions: HPBCD 75 mg/mL (7.5 wt %); FIG. 1B
Method: Six different formulations (with mometasone furoate monohydrate and the rest of excipients as defined in example 7) were prepared (see table below). The six formulations had amounts of HPBCD from 12.5 to 100 mg/mL. Then, in each of them an excessive amount of bilastine was added and the maximum solubility was tested. Furthermore, the percentage of the mometasone furoate dissolved was also tested. All the measurements were conducted at time 0.

solubility in water [1] | solubility of mometasone furoate [2] | Compound
only slightly soluble | – | CCOCCn1c(C2CCN(CCc3ccc(C(C)(C)C(=O)O)cc3)CC2)nc2ccccc21 [Bilastine, 2-[4-(2-{4-[1-(2-ethoxyethyl)-1H-benzimidazol-2-yl]-1-piperidinyl}ethyl)phenyl]-2-methylpropanoic acid]
– | around 4 mg/mL | C[C@@H]1C[C@H]2[C@@H]3CCC4=CC(=O)C=C[C@]4(C)[C@@]3(Cl)[C@@H](O)C[C@]2(C)[C@@]1(OC(=O)c1ccco1)C(=O)CCl.O [Mometasone Furoate monohydrate, Mometasone furoate monohydrate]
